One test concerns the target human α7 nAChR (Homo sapiens (Human), UniProt P36544). Put plainly: cell-based.
Conditions: not given
Chain of human α7 nAChR (P36544 23-502 limits assumed): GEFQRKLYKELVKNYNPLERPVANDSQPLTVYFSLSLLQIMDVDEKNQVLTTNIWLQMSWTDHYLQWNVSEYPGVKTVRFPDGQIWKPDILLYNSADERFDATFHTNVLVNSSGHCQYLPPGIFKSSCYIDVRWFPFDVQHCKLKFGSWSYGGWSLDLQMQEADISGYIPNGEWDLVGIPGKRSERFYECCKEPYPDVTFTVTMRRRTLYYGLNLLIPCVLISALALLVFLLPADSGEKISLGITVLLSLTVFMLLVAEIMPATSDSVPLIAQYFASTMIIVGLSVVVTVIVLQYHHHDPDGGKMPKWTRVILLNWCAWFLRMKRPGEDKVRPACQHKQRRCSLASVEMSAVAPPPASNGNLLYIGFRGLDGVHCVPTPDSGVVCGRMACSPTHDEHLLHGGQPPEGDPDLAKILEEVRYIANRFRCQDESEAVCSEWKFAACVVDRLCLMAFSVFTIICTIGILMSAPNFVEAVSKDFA
What is called EC50 is the concentration giving half of the maximal effect. On to `O=C(NC1CN2CCC1CC2)c1ccc(=O)n(-c2nccs2)c1` (centres unmarked) [Example 1, N-(1-azabicyclo[2.2.2]octan-3-yl)-6-oxo-1-(2-thiazolyl)-3-pyridinecarboxamide], for which the half-maximal effective concentration (EC50) was in the range of 100 to 500 nM. The same measure, in the same setting: in the case of `O=C(N[C@H]1CN2CCC1CC2)c1ccc(=O)n(-c2nccs2)c1` [Example 2, N-[(3R)-1-azabicyclo[2.2.2]octan-3-yl)-6-oxo-1-(2-thiazolyl)-3-pyridinecarboxamide] it was 100 to 500 nM.

Compound `O=C(N[C@@H]1CN2CCC1CC2)c1ccc(=O)n(-c2nccs2)c1` [Example 3, N-[(3S)-1-azabicyclo[2.2.2]octan-3-yl)-6-oxo-1-(2-thiazolyl)-3-pyridinecarboxamide] gave a concentration giving a half-maximal response (EC50) of 100 to 500 nM. On the same count and under the same terms, in the case of `O=C(NC1CN2CCC1CC2)c1ccc(=O)n(-c2ccc(-c3ccccc3)cn2)c1` (centres unmarked) [Example 7, N-(1-azabicyclo[2.2.2]octan-3-yl)-6-oxo-1-(5-phenyl-2-pyridine-1-yl)-3-pyridinecarboxamide] it was 100 to 500 nM. Still for that read-out and setting: then `Cc1cnc(-n2cc(C(=O)NC3CN4CCC3CC4)ccc2=O)s1` (centres unmarked) [Example 10, N-(1-azabicyclo[2.2.2]octan-3-yl)-1-(5-methyl-2-thiazolyl)-6-oxo-3-pyridinecarboxamide], with 100 to 500 nM. With `Cc1cnc(-n2cc(C(=O)N[C@@H]3CN4CCC3CC4)ccc2=O)s1` [Example 12, N-[(3S)-1-azabicyclo[2.2.2]octan-3-yl]-1-(5-methyl-2-thiazolyl)-6-oxo-3-pyridinecarboxamide], the EC50 lay within 500 to 1000 nM. Still for that read-out and setting: in the case of `CCc1cnc(-n2cc(C(=O)NC3CN4CCC3CC4)ccc2=O)s1` (centres unmarked) [Example 13, N-(1-azabicyclo[2.2.2]octan-3-yl)-1-(5-ethyl-2-thiazolyl)-6-oxo-3-pyridinecarboxamide] it was 100 to 500 nM; in that of `CCc1cnc(-n2cc(C(=O)N[C@@H]3CN4CCC3CC4)ccc2=O)s1` [Example 15, N-[(3S)-1-azabicyclo[2.2.2]octan-3-yl]-1-(5-ethyl-2-thiazolyl)-6-oxo-3-pyridinecarboxamide], 100 to 500 nM. On the same count and under the same terms, then `CCCc1cnc(-n2cc(C(=O)NC3CN4CCC3CC4)ccc2=O)s1` (centres unmarked) [Example 16, N-(1-azabicyclo[2.2.2]octan-3-yl)-6-oxo-1-(5-propyl-2-thiazolyl)-3-pyridinecarboxamide], with 100 to 500 nM; and `CC(C)c1cnc(-n2cc(C(=O)NC3CN4CCC3CC4)ccc2=O)s1` (centres unmarked) [Example 17, N-(1-azabicyclo[2.2.2]octan-3-yl)-6-oxo-1-(5-propan-2-yl-2-thiazolyl)-3-pyridinecarboxamide], with 100 to 500 nM. Same read-out and setting: in the case of `CC(C)c1cnc(-n2cc(C(=O)N[C@@H]3CN4CCC3CC4)ccc2=O)s1` [Example 19, N-[(3S)-1-azabicyclo[2.2.2]octan-3-yl)-6-oxo-1-(5-propan-2-yl-2-thiazolyl)-3-pyridinecarboxamide] it was 100 to 500 nM; in that of `CC(C)(C)c1cnc(-n2cc(C(=O)NC3CN4CCC3CC4)ccc2=O)s1` (centres unmarked) [Example 20, N-(1-azabicyclo[2.2.2]octan-3-yl)-1-(5-tert-butyl-2-thiazolyl)-6-oxo-3-pyridinecarboxamide], 100 to 500 nM. In the case of `CC(C)(C)c1cnc(-n2cc(C(=O)N[C@H]3CN4CCC3CC4)ccc2=O)s1` [Example 21, N-[(3R)-1-azabicyclo[2.2.2]octan-3-yl]-1-[5-tert-butyl-2-thiazolyl]-6-oxo-3-pyridinecarboxamide], the EC50 lay in the range of 100 to 500 nM. The same measure, in the same setting: then `CC(C)(C)c1cnc(-n2cc(C(=O)N[C@@H]3CN4CCC3CC4)ccc2=O)s1` [Example 22, N-[(3S)-1-azabicyclo[2.2.2]octan-3-yl]-1-[5-tert-butyl-2-thiazolyl]-6-oxo-3-pyridinecarboxamide], with 500 to 1000 nM; and `O=C(NC1CN2CCC1CC2)c1ccc(=O)n(-c2ncc(C3CCCC3)s2)c1` (centres unmarked) [Example 23, N-(1-azabicyclo[2.2.2]octan-3-yl)-1-(5-cyclopentyl-2-thiazolyl)-6-oxo-3-pyridinecarboxamide], with 100 to 500 nM; and `O=C(NC1CN2CCC1CC2)c1ccc(=O)n(-c2ncc(C3CCCCC3)s2)c1` (centres unmarked) [Example 24, N-(1-azabicyclo[2.2.2]octan-3-yl)-1-(5-cyclohexyl-2-thiazolyl)-6-oxo-3-pyridinecarboxamide], with 100 to 500 nM. Compound `O=C(NC1CN2CCC1CC2)c1ccc(=O)n(-c2ncc(-c3ccccc3)s2)c1` (centres unmarked) [Example 25, N-(1-azabicyclo[2.2.2]octan-3-yl)-1-(5-phenyl-2-thiazolyl)-6-oxo-3-pyridinecarboxamide] returned a concentration for a half-maximal effect (EC50) of 500 to 1000 nM.

In the case of `O=C(N[C@H]1CN2CCC1CC2)c1ccc(=O)n(-c2ncc(Cl)s2)c1` [Example 27, N-[(3R)-1-azabicyclo[2.2.2]octan-3-yl]-1-(5-chloro-2-thiazolyl)-6-oxo-3-pyridinecarboxamide], the EC50 lay in the range of 100 to 500 nM. On the same count and under the same terms, then `O=C(NC1CN2CCC1CC2)c1ccc(=O)n(-c2ncc(Cc3ccccc3)s2)c1` (centres unmarked) [Example 29], with 100 to 500 nM. Still for that read-out and setting: then `O=C(NC1CN2CCC1CC2)c1ccc(=O)n(-c2nc3ccccc3s2)c1` (centres unmarked) [Example 33, N-(1-azabicyclo[2.2.2]octan-3-yl)-1-(1,3-benzothiazole-2-yl)-6-oxo-3-pyridinecarboxamide], with 100 to 500 nM.

Staying with this test, now noted: HEK293T/17 cells transfected with human α7 nAChR and RIC3; with PNU-120596; fluorescence relative to 1 μM epibatidine; read-out: EC50 of human α7 nAChR.
`O=C(NC1CN2CCC1CC2)c1ccc(=O)n(-c2ccc(Cl)cn2)c1` (centres unmarked) [Example 6, N-(1-azabicyclo[2.2.2]octan-3-yl)-1-(5-chloro-2-pyridinyl)-6-oxo-3-pyridinecarboxamide]: the EC50 was more than 1000 nM. As to `O=C(NC1CN2CCC1CC2)c1ccc(=O)n(-c2cc(-c3ccccc3)no2)c1` (centres unmarked) [Example 9, N-(1-azabicyclo[2.2.2]octan-3-yl)-6-oxo-1-[3-phenyl-5-isoxazolyl)-3-pyridinecarboxamide], the concentration for a half-maximal effect (EC50) was more than 1000 nM.

For `Cc1cnc(-n2cc(C(=O)N[C@H]3CN4CCC3CC4)ccc2=O)s1` [Example 11, N-[(3R)-1-azabicyclo[2.2.2]octan-3-yl]-1-(5-methyl-2-thiazolyl)-6-oxo-3-pyridinecarboxamide], the EC50 is less than 100 nM. On the same count and under the same terms, then `CCc1cnc(-n2cc(C(=O)N[C@H]3CN4CCC3CC4)ccc2=O)s1` [Example 14, N-[(3R)-1-azabicyclo[2.2.2]octan-3-yl]-1-(5-ethyl-2-thiazolyl)-6-oxo-3-pyridinecarboxamide], with less than 100 nM; and `CC(C)c1cnc(-n2cc(C(=O)N[C@H]3CN4CCC3CC4)ccc2=O)s1` [Example 18, N-[(3R)-1-azabicyclo[2.2.2]octan-3-yl)-6-oxo-1-(5-propan-2-yl-2-thiazolyl)-3-pyridinecarboxamide], with less than 100 nM. Same read-out and setting: then `O=C(NC1CN2CCC1CC2)c1ccc(=O)n(-c2ncc(Cl)s2)c1` (centres unmarked) [Example 26, N-(1-azabicyclo[2.2.2]octan-3-yl)-1-(5-chloro-2-thiazolyl)-6-oxo-3-pyridinecarboxamide], with less than 100 nM; and `O=C(N[C@@H]1CN2CCC1CC2)c1ccc(=O)n(-c2ncc(Cl)s2)c1` [Example 28, N-[(3S)-1-azabicyclo[2.2.2]octan-3-yl]-1-(5-chloro-2-thiazolyl)-6-oxo-3-pyridinecarboxamide], with more than 1000 nM. Consider `Cc1csc(-n2cc(C(=O)NC3CN4CCC3CC4)ccc2=O)n1` (centres unmarked) [Example 30, N-(1-azabicyclo[2.2.2]octan-3-yl)-1-(4-methyl-2-thiazolyl)-6-oxo-3-pyridinecarboxamide], for which the EC50 was more than 1000 nM. `Cc1nnc(-n2cc(C(=O)NC3CN4CCC3CC4)ccc2=O)s1` (centres unmarked) [Example 42, N-(1-azabicyclo[2.2.2]octan-3-yl)-1-[5-methyl-1,3,4-thiadiazole-2-yl)-6-oxo-3-pyridinecarboxamide]: the EC50 was more than 1000 nM.

(Values after patent US9987259B2 (priority 2011, dated 2018).)
